Test [1] concerns the target T1, STE20-related kinase adapter protein alpha (Homo sapiens, UniProt Q7RTN6).
T1 sequence (Q7RTN6 whole entry): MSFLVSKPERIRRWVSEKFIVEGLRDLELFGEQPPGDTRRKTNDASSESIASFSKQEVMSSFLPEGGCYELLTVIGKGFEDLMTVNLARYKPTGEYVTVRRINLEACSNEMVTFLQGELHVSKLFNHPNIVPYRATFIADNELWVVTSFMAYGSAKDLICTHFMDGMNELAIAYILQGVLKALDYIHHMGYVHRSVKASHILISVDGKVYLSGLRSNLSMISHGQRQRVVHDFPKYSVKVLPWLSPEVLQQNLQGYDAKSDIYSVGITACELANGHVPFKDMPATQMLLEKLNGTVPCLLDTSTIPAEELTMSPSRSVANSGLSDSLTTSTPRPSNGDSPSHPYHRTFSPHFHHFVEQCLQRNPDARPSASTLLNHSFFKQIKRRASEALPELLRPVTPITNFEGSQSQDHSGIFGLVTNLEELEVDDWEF

For test [2], the target named is T2, Acyl-CoA dehydrogenase family member 11 (Homo sapiens, UniProt Q709F0).
T2 sequence (Q709F0 whole entry): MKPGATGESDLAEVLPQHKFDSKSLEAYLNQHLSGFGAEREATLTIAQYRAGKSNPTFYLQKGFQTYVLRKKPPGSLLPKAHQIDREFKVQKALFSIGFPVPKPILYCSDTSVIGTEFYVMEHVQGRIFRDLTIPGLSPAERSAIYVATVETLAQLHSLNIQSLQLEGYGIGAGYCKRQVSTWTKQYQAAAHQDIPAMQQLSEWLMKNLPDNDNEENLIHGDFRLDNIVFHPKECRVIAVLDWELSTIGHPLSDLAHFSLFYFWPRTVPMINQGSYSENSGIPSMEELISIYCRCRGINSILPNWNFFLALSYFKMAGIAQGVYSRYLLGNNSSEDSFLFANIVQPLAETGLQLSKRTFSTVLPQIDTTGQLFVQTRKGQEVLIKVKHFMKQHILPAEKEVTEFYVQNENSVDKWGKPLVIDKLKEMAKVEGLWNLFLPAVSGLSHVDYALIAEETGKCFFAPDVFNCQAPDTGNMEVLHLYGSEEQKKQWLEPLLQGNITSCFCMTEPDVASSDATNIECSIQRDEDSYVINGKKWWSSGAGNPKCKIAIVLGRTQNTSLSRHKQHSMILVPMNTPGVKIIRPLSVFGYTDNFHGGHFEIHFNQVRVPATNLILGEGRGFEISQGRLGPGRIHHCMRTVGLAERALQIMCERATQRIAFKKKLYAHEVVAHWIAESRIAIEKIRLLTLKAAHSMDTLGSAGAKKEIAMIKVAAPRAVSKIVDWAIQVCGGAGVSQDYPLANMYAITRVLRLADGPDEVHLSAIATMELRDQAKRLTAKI

The target in the next test is Focal adhesion kinase 1 (Homo sapiens, UniProt Q05397).
Sequence of Focal adhesion kinase 1 (Q05397 whole entry): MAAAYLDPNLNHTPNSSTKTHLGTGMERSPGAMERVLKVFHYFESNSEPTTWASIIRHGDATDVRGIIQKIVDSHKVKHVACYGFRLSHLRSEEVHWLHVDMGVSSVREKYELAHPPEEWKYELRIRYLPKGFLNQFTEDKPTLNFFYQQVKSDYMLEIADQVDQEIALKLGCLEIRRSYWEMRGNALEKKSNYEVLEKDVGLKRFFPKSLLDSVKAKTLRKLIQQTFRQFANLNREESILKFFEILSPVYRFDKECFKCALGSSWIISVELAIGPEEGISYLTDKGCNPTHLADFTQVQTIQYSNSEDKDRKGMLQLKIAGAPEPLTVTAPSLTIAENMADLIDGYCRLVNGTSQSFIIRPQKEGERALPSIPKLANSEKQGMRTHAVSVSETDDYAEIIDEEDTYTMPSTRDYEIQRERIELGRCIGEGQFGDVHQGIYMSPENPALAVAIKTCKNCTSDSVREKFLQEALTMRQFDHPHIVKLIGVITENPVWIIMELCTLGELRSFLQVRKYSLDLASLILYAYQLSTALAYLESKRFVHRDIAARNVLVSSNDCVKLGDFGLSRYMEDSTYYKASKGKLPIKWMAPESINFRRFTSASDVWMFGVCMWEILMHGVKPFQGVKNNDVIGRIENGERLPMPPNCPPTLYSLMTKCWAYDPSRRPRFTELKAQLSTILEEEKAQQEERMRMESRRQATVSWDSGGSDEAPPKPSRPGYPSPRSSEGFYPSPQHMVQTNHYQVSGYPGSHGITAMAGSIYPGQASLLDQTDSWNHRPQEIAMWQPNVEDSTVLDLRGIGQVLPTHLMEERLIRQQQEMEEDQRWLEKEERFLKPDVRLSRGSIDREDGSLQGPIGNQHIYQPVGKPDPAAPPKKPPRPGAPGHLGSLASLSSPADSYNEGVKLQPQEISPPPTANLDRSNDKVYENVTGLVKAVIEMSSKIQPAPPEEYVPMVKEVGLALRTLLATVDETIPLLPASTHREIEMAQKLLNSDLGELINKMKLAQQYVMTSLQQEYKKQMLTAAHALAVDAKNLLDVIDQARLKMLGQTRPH
For test [3], the target named is T3, Tyrosine--tRNA ligase, cytoplasmic (Homo sapiens, UniProt P54577).
T3 sequence (P54577 whole entry): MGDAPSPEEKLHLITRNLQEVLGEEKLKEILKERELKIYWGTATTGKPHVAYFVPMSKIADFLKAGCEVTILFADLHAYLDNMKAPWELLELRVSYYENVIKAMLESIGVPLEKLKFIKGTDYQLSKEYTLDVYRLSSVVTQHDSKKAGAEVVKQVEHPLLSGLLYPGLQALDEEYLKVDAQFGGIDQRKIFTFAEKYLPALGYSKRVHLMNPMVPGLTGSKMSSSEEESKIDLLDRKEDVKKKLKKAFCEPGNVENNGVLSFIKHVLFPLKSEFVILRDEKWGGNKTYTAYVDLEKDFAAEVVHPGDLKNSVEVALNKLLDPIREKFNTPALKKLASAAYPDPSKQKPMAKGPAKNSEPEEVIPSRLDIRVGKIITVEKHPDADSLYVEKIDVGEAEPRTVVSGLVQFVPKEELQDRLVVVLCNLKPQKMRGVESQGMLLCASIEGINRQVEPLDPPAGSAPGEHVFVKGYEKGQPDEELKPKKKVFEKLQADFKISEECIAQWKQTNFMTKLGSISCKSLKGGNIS

Test [4] deals with cAMP-dependent protein kinase type II-alpha regulatory subunit (Homo sapiens, UniProt P13861).
Sequence of cAMP-dependent protein kinase type II-alpha regulatory subunit (P13861 whole entry): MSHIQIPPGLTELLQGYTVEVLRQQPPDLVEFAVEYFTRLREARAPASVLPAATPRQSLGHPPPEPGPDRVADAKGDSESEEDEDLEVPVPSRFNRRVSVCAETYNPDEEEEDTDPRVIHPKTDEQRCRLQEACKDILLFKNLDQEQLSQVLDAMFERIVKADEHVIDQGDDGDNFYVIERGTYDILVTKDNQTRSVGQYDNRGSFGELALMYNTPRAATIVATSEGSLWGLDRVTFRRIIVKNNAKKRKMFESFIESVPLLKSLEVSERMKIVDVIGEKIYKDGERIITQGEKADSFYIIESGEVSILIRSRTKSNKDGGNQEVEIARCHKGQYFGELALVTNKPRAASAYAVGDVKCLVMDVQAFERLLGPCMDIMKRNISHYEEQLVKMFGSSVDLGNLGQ
In test [5] the target is T4, Glycogen phosphorylase, brain form (Homo sapiens, UniProt P11216).
T4 sequence (P11216 whole entry): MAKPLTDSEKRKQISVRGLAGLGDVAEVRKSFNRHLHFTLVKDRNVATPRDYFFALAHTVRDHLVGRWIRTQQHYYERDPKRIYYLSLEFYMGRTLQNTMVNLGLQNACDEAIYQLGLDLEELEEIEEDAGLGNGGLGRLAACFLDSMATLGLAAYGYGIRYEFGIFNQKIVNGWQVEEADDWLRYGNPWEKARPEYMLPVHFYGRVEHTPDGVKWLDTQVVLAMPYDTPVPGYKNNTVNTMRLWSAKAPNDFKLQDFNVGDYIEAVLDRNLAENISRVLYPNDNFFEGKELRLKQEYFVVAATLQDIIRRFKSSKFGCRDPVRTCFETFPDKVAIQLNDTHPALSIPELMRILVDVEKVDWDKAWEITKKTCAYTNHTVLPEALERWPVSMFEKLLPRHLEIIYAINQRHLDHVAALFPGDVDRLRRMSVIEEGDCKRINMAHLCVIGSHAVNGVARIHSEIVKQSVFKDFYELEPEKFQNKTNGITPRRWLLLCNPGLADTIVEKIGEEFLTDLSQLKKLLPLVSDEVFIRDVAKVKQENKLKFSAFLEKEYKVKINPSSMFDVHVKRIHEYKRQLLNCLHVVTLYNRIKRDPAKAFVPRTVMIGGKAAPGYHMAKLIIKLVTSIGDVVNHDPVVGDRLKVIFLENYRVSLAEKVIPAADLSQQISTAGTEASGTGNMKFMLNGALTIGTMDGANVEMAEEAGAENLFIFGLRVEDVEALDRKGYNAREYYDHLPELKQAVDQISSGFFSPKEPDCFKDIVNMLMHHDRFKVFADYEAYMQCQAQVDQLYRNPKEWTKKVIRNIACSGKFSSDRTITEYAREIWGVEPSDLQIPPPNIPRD

The target in test [6] is Casein kinase I isoform delta (Homo sapiens, UniProt P48730).
Sequence of Casein kinase I isoform delta (P48730 whole entry, canonical isoform): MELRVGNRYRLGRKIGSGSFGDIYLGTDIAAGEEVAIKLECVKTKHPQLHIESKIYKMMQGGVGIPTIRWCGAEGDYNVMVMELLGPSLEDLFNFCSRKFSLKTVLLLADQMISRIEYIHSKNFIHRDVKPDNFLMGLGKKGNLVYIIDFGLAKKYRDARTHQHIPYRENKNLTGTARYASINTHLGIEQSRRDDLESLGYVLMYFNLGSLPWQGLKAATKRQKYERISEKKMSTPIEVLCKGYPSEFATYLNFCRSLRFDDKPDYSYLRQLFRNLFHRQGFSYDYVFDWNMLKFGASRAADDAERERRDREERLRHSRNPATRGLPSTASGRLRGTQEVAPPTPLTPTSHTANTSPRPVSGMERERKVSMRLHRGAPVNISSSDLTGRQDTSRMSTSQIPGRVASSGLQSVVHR
In test [7] the target is MAP/microtubule affinity-regulating kinase 3 (Homo sapiens, UniProt P27448).
Sequence of MAP/microtubule affinity-regulating kinase 3 (P27448 whole entry): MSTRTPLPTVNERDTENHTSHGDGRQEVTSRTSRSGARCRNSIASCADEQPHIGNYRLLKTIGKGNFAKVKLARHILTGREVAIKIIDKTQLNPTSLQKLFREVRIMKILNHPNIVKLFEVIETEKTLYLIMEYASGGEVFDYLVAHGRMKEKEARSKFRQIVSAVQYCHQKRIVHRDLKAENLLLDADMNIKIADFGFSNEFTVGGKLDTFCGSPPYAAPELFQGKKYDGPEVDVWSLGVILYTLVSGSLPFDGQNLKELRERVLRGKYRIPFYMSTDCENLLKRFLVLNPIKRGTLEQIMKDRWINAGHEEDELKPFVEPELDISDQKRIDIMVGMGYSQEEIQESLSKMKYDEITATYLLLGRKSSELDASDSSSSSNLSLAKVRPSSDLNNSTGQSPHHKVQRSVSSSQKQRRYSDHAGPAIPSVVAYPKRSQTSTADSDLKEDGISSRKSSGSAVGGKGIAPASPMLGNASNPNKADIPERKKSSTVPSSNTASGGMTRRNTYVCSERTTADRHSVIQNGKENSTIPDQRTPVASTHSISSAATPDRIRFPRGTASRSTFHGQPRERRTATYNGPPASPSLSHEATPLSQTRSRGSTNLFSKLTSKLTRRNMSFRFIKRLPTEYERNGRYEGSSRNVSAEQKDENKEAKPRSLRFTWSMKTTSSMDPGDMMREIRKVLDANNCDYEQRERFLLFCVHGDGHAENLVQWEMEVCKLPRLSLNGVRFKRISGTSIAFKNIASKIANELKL
Test [8] concerns the target Ribosomal protein S6 kinase alpha-5 (Homo sapiens, UniProt O75582).
In another test the target is LIM domain kinase 2 (Homo sapiens, UniProt P53671).
Sequence of LIM domain kinase 2 (P53671 whole entry, the tested form may be a part): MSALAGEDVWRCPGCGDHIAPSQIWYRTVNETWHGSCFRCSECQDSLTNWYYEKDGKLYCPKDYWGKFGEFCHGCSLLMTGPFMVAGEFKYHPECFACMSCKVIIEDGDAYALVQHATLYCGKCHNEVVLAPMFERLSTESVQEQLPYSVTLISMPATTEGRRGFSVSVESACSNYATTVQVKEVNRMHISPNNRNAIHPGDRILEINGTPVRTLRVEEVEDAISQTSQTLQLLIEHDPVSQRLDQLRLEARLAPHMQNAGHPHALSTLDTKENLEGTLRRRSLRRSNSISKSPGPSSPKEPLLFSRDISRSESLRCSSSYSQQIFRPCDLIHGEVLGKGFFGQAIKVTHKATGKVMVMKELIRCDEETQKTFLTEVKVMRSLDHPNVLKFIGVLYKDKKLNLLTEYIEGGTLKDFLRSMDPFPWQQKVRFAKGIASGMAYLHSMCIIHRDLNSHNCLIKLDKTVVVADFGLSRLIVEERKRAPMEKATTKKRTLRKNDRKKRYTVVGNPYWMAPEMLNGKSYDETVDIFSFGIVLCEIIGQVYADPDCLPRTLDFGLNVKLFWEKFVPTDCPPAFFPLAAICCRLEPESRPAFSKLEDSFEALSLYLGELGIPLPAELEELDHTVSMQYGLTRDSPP
The target of test [9] is Serine/threonine-protein kinase PAK 4 (Homo sapiens, UniProt O96013).
Sequence of Serine/threonine-protein kinase PAK 4 (O96013 whole entry): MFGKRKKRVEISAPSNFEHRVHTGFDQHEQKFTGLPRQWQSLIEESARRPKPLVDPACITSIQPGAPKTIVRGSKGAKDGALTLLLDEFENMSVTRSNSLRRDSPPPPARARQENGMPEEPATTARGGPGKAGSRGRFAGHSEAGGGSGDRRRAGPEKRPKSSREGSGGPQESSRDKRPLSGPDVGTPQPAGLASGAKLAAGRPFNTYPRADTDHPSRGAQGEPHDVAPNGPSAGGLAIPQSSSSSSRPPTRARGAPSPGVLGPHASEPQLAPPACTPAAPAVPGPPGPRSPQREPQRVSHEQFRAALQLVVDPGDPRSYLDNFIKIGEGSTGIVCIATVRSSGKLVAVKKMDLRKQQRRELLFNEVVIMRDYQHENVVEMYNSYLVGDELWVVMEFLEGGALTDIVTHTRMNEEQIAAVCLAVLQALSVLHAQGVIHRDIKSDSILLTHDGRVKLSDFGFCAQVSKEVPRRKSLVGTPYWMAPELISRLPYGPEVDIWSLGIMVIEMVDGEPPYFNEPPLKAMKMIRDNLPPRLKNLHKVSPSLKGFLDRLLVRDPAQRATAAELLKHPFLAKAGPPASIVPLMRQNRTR

Calls of active or inactive are those of the source. For most assays here, no stated cut-off is given here; in the data, actives have a measured Kd and inactives only a lower limit.

Our source for the Kd values is ChEMBL document CHEMBL3991601, “The target landscape of clinical kinase drugs” (Science, 2017).

For orientation: Kd means a measure of binding affinity in units of concentration.

Sequence of Ribosomal protein S6 kinase alpha-5 (O75582 whole entry, the tested form may be a part): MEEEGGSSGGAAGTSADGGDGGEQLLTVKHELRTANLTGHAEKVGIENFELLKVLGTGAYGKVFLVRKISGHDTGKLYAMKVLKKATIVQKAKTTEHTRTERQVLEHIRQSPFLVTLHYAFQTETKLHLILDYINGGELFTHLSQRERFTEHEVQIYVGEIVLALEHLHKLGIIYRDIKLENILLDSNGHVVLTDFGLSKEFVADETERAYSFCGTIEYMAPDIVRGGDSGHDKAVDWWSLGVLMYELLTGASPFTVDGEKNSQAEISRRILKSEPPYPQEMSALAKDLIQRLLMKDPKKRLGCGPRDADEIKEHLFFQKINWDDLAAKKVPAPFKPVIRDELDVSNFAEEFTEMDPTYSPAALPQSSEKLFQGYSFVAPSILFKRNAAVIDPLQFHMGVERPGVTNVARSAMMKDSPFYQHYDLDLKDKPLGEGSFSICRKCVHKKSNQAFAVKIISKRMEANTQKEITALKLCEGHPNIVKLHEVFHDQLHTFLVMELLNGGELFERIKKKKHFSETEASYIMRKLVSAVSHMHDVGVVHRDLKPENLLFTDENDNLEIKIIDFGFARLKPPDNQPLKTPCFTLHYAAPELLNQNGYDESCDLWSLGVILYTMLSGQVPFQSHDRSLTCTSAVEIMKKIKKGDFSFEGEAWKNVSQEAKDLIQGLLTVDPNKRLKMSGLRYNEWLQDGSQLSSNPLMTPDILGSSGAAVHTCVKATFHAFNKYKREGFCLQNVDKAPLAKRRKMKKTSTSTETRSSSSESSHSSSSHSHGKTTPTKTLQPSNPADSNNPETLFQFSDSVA

Take `CC[C@@H]1C(=O)N(C)c2cnc(Nc3ccc(C(=O)N[C@H]4CC[C@H](N5CCN(CC6CC6)CC5)CC4)cc3OC)nc2N1C(C)C` [VOLASERTIB]: the Kd in test [1] was > 30 µM (inactive); in [2] it was > 30 µM (inactive); at Focal adhesion kinase 1, 0.601 µM (active); in test [3] it was > 30 µM (inactive); in [4] it was > 30 µM (inactive); in [5] it was > 30 µM (inactive). Further, the Kd (in [6]; in test [7]; in test [8]; at LIM domain kinase 2; in test [9]) was > 30 µM (inactive) in each case.

With `COc1cc(OC)c(/C=C/S(=O)(=O)Cc2ccc(OC)c(NCC(=O)O)c2)c(OC)c1` [RIGOSERTIB], the Kd (in test [1]; in test [2]; at Focal adhesion kinase 1; in test [3]; in [4]; in test [5]) was > 30 µM (inactive) in each case. For the same compound, the Kd (in test [6]; in test [7]; in [8]; on LIM domain kinase 2; in test [9]) was > 30 µM (inactive) in each case.

Regarding `CCn1c(=O)c(-c2cc[nH]n2)cc2c(C)nc(N)nc21` [VOXTALISIB], the Kd (in [1]; in [2]; at Focal adhesion kinase 1; in [3]; in [4]; in test [5]) was > 30 µM (inactive) in each case. In addition, the Kd (in test [6]; in test [7]; in [8]; on LIM domain kinase 2; in test [9]) was > 30 µM (inactive) each time.

Regarding `CO[C@H]1C[C@@H]2CC[C@@H](C)[C@@](O)(O2)C(=O)C(=O)N2CCCC[C@H]2C(=O)O[C@H]([C@H](C)C[C@@H]2CC[C@@H](OCCO)[C@H](OC)C2)CC(=O)[C@H](C)/C=C(\C)[C@@H](O)[C@@H](OC)C(=O)[C@H](C)C[C@H](C)/C=C/C=C/C=C/1C` [EVEROLIMUS], the Kd (in test [1]; in test [2]; on Focal adhesion kinase 1; in test [3]; in test [4]; in [5]) was > 30 µM (inactive) each time. The Kd (in test [6]; in [7]; in [8]; at LIM domain kinase 2; in [9]) was > 30 µM (inactive) throughout.

For `CCCS(=O)(=O)Nc1ccc(F)c(C(=O)c2c[nH]c3ncc(-c4ccc(Cl)cc4)cc23)c1F` [VEMURAFENIB], the Kd (in test [1]; in test [2]; at Focal adhesion kinase 1; in test [3]; in test [4]; in test [5]) was > 30 µM (inactive) each time. For the same compound, the Kd (in test [6]; in test [7]; in [8]; at LIM domain kinase 2; in test [9]) was > 30 µM (inactive) in each case.

As for `CNC(=O)CN1CCC(Oc2cc3c(Nc4cccc(Cl)c4F)ncnc3cc2OC)CC1` [SAPITINIB], the Kd (in test [1]; in test [2]; at Focal adhesion kinase 1; in [3]; in test [4]; in test [5]) was > 30 µM (inactive) each time. In addition, the Kd (in test [6]; in test [7]; in test [8]; on LIM domain kinase 2; in test [9]) was > 30 µM (inactive) throughout.

Regarding `CC(=O)Nc1cccc(-n2c(=O)n(C3CC3)c(=O)c3c(Nc4ccc(I)cc4F)n(C)c(=O)c(C)c32)c1` [TRAMETINIB], the Kd (in test [1]; in test [2]; on Focal adhesion kinase 1; in test [3]; in test [4]; in [5]) was > 30 µM (inactive) in each case. The Kd (in test [6]; in [7]; in test [8]; on LIM domain kinase 2; in [9]) was > 30 µM (inactive) each time.

For `COc1cc2nccc(Oc3ccc(NC(=O)NC4CC4)c(Cl)c3)c2cc1C(N)=O` [LENVATINIB], the Kd (in [1]; in test [2]; on Focal adhesion kinase 1; in test [3]; in test [4]; in test [5]) was > 30 µM (inactive) throughout. In addition, the Kd (in [7]; in [8]; on LIM domain kinase 2; in [9]) was > 30 µM (inactive) in each case.

`CN1N=C(N)c2cn([C@@H]3O[C@H](COP(=O)(O)O)[C@@H](O)[C@H]3O)c3ncnc1c23` [TRICIRIBINE PHOSPHATE]: the Kd (in test [2]; on Focal adhesion kinase 1; in [3]; in test [4]; in [5]; in [6]) was > 30 µM (inactive) throughout. Besides, the Kd (in [7]; in test [8]; on LIM domain kinase 2; in test [9]) was > 30 µM (inactive) each time.
